≈ marks a conversion by molar mass, not a printed value.
Experiments:
Sclerotinia sclerotiorum = test: Antifungal activity against Sclerotinia sclerotiorum assessed as inhibition of mycelium growth on potato dextrose agar at 25 +/- 1 degC for 96 hr; assay type: functional, organism-based
Botrytis cinerea = test: Antifungal activity against Botryotinia fuckeliana assessed as inhibition of mycelium growth on potato dextrose agar at 25 +/- 1 degC for 96 hr; assay type: functional, organism-based

SMILES | EC50 (Sclerotinia sclerotiorum) [µg/mL] | EC50 (Botrytis cinerea) [µg/mL]
O=C(NC(=O)c1nc2cc(Cl)ccc2[nH]1)Nc1ccccc1 | 11.7 (≈ 37 µM) | 22.4 (≈ 71.2 µM)
O=C(NC(=O)c1nc2cc(Cl)ccc2[nH]1)Nc1ccc(F)cc1 | 6.23 (≈ 18.7 µM) | 8.76 (≈ 26.3 µM)
O=C(NC(=O)c1nc2cc(Cl)ccc2[nH]1)Nc1ccc(Cl)cc1 | 6.05 (≈ 17.3 µM) | 18.9 (≈ 54 µM)
O=C(NC(=O)c1nc2cc(Cl)ccc2[nH]1)Nc1ccc(Cl)c(Cl)c1 | 5.5 (≈ 14.3 µM) | 12.6 (≈ 33 µM)
O=C(NC(=O)c1nc2cc(Cl)ccc2[nH]1)Nc1ccc(Br)cc1 | 9.28 (≈ 23.6 µM) | 3.94 (≈ 10 µM)
O=C(NC(=O)c1nc2cc(Cl)ccc2[nH]1)Nc1ccc([N+](=O)[O-])cc1 | 9.14 (≈ 25.4 µM) | 30.7 (≈ 85.4 µM)
O=C(NC(=O)c1nc2cc(F)ccc2[nH]1)Nc1ccccc1 | 6.55 (≈ 22 µM) | 19.9 (≈ 66.9 µM)
O=C(NC(=O)c1nc2cc(F)ccc2[nH]1)Nc1ccc(F)cc1 | 10.9 (≈ 34.6 µM) | 10.9 (≈ 34.6 µM)
O=C(NC(=O)c1nc2cc(F)ccc2[nH]1)Nc1ccc(Cl)cc1 | 14.6 (≈ 43.9 µM) | 4.65 (≈ 14 µM)
O=C(NC(=O)c1nc2cc(F)ccc2[nH]1)Nc1ccc(Cl)c(Cl)c1 | 9.03 (≈ 24.6 µM) | 11.5 (≈ 31.5 µM)
O=C(NC(=O)c1nc2cc(F)ccc2[nH]1)Nc1ccc(Br)cc1 | 8.66 (≈ 23 µM) | 13.6 (≈ 36.1 µM)
O=C(NC(=O)c1nc2cc(F)ccc2[nH]1)Nc1ccc([N+](=O)[O-])cc1 | 8.71 (≈ 25.4 µM) | 10.4 (≈ 30.2 µM)
COC(=O)NC(=S)Nc1ccccc1NC(=S)NC(=O)OC [THIOPHANATE METHYL] | 10.5 (≈ 30.5 µM) | 1.03 (≈ 3.01 µM)

Reference: ChEMBL document CHEMBL3046731, “Synthesis and antifungal activity of 1-substitutedphenyl-3-(5-halobenzimidazol-2-yl) acylurea” (J Pestic Sci, 2010)
